Laboratory results taken from publication PMC11964921 (npj Drug Discovery, 2025).

Tests used:
[1] = test system: M. tuberculosis multi-drug-resistant clinical strains; assay: microbe, parasite or virus in culture; format: cell-based; conditions: for MIC: Mycobacterium tuberculosis
[2] = test system: M. tuberculosis H37Rv-ΔcydAB; parameters: species or system mouse (Balb/cBy); conditions: mouse, in vivo

## CCc1nc2ccc(Cl)cn2c1C(=O)NCc1ccc(C2CC3(C2)CN(S(=O)(=O)C(F)(F)F)C3)cc1 [JNJ-2901]
[1]; all 18 clinical strains
  MIC: < 1 nM
[1]; all 18 clinical strains, Middlebrook 7H9 medium
  MIC: ≤ 0.5 ng/mL
[1]; strain 661706043123, resistant to INH, PAS
  MIC: ≤ 0.5 ng/mL
[1]; strain 661710016056, resistant to INH, S, PAS
  MIC: ≤ 0.5 ng/mL
[1]; strain 661904036200, resistant to INH, PAS
  MIC: ≤ 0.5 ng/mL
[1]; strain 661906047849, resistant to INH, RIF, S, PZA, ETH, PAS, EMB, CYC
  MIC: ≤ 0.5 ng/mL
[1]; strain 661907010966, resistant to INH, RIF, S, PAS, EMB, PZA, CYC, AMK, KAN, CAP, ETH
  MIC: ≤ 0.5 ng/mL
[1]; strain 661908012994, resistant to INH, RIF, S, PZA, PAS, ETH
  MIC: ≤ 0.5 ng/mL
[1]; strain 661911031781, resistant to INH, RIF, S, PAS, CYC, ETH, KAN
  MIC: ≤ 0.5 ng/mL
[1]; strain 661911038007, resistant to INH, RIF, S, PAS
  MIC: ≤ 0.5 ng/mL
[1]; strain 662001006107, resistant to INH, RIF, PZA, S, PAS, CYC, ETH, FQL
  MIC: ≤ 0.5 ng/mL
[1]; strain 662001039167, resistant to INH, RIF, S, PAS, EMB, PZA, CYC, KAN
  MIC: ≤ 0.5 ng/mL
[1]; strain 662001071666, resistant to INH, RIF, S, PAS, PZA, EMB, ETH
  MIC: ≤ 0.5 ng/mL
[1]; strain 662003052840, resistant to INH, EMB, PZA, S, CYC, PAS, ETH
  MIC: ≤ 0.5 ng/mL
[1]; strain 662004032055, resistant to INH, RIF, S, PAS, ETH
  MIC: ≤ 0.5 ng/mL
[1]; strain 662008015398, resistant to INH, RIF, S, PAS, EMB, PZA, ETH
  MIC: ≤ 0.5 ng/mL
[1]; strain 662012006551, resistant to INH, PAS, PZA, ETH (LNZ geno)
  MIC: ≤ 0.5 ng/mL
[1]; strain 662101040833, resistant to INH, RIF, PZA, S, PAS, EMB, ETH, KAN, CAP, AMK, CYC
  MIC: ≤ 0.5 ng/mL
[1]; strain 662105041666, resistant to INH, RIF, S, PZA, EMB, FQL, ETH, CYC, PAS
  MIC: ≤ 0.5 ng/mL
[1]; strain 662108038389, resistant to INH, RIF, S, PAS
  MIC: ≤ 0.5 ng/mL
[1]; clinical multidrug-resistant M. tuberculosis strains
  concentration of growth inhibition (in words): sub-nanomolar
[2]
  reduction in bacterial burden / lung CFU: 4 log
